# Measured values reported in patent publication US7202244B2, “Chk-1 inhibitors” (Millennium Pharmaceuticals, Inc., priority 2002, dated 2007).
# Test system: HT29, HCT116 or other cells
# Assay: WST assay: enhancement of cell killing by DNA damaging agents
# Assay type: cell-based
# Details: Chk1 inhibitor fixed at 78 nM with DNA damaging agent titration; shift of 1 = no shift
# Experimental: HT29, HCT116 (5000 cells/well) or other cells were seeded (75 ul) to 96 well clear bottom plates at densities which provide linear growth curves for 72 hours. Cells were cultured under sterile conditions in appropriate media and for HT29 & HCT116 this media was McCoy's 5A containing 10% Fetal Bovine Serum (FBS). Following the initial seeding of cells they are incubated at 37° C., 5% CO2 from 17 to 24 hours at which time the appropriate DNA damaging agents (camptothecins, 5-fluorouracil and etoposid) are added at increasing concentrations to a point which is capable of causing at least 80% cell killing with in 48 hours. Final volume of all DNA damaging agent & compound additions was 25 ul and assays contained <1% DMSO final. At the same time as DNA Damaging agent addition, Chk1 inhibitor was added at fixed concentrations to each DNA damaging agent titration to observe enhancement of cell killing. In addition, toxicity of each Chk1 inhibitor alone was observed. By doing this over a range of Chk1 inhibitor concentrations we were able to identify compounds which maximally enhance (2–30 fold) cell killing by each DNA damaging agent and generated ≦80% cell killing by the compound alone. Cell viability/cell killing under the conditions described above was determined by addition WST reagent (Roche) according to the manufacturer at 47 hours following DNA damage & Chk1 inhibitor addition and following a 3.5 hour or 2.5 hour incubation at 37 C, 5% CO2, OD450 was measured.
row,Compound,Shift 78 nM
1,Cc1cnc(NC(=O)Nc2cc(Cl)ccc2OCCCN)cn1 [Example 28],2.7
2,"NCCCOc1ccc(Cl)cc1NC(=O)Nc1cnccn1 [Example 29, 1-[2-(3-Amino-propoxy)-5-chloro-phenyl]-3-pyrazin-2-yl-urea]",2.5
3,"Cc1cnc(NC(=O)Nc2cc(Cl)ccc2OCCCCN)cn1 [Example 33, 1-[2-(4-Amino-butoxy)-5-chloro-phenyl]-3-(5-methyl-pyrazin-2-yl)-urea]",1.8

# Same assay, conditions: Chk1 inhibitor fixed at 156 nM with DNA damaging agent titration; shift of 1 = no shift
row,Compound,Shift 156 nM
1,"CN(C)CCCOc1ccc(Cl)cc1NC(=O)Nc1cnccn1 [Example 1, 1-[5-Chloro-2-(3-dimethylamino-propoxy)-phenyl]-3-pyrazin-2-yl-urea]",1
2,"CN(C)CCOc1ccc(Cl)cc1NC(=O)Nc1cnccn1 [Example 2, 1-[5-Chloro-2-(2-dimethylamino-ethoxy)-phenyl]-3-pyrazin-2-yl-urea]",1
3,Cc1cnc(NC(=O)Nc2cc(Cl)ccc2OCCCN)cn1 [Example 28],3.4
4,"NCCCOc1ccc(Cl)cc1NC(=O)Nc1cnccn1 [Example 29, 1-[2-(3-Amino-propoxy)-5-chloro-phenyl]-3-pyrazin-2-yl-urea]",3.1
5,"NCCCOc1ccc(Cl)cc1NC(=O)Nc1cnc2ccccc2n1 [Example 31, 1-[2-(3-Amino-propoxy)-5-chloro-phenyl]-3-quinoxalin-2-yl-urea]",1.3
6,"Cc1cnc(NC(=O)Nc2cc(Cl)ccc2OCCCCN)cn1 [Example 33, 1-[2-(4-Amino-butoxy)-5-chloro-phenyl]-3-(5-methyl-pyrazin-2-yl)-urea]",2.4

# Same assay, conditions: Chk1 inhibitor fixed at 313 nM with DNA damaging agent titration; shift of 1 = no shift
row,Compound,Shift 313 nM
1,"CN(C)CCCOc1ccc(Cl)cc1NC(=O)Nc1cnccn1 [Example 1, 1-[5-Chloro-2-(3-dimethylamino-propoxy)-phenyl]-3-pyrazin-2-yl-urea]",1.2
2,"CN(C)CCOc1ccc(Cl)cc1NC(=O)Nc1cnccn1 [Example 2, 1-[5-Chloro-2-(2-dimethylamino-ethoxy)-phenyl]-3-pyrazin-2-yl-urea]",1.1
3,Cc1cnc(NC(=O)Nc2cc(Cl)ccc2OCCCN)cn1 [Example 28],5.3
4,"NCCCOc1ccc(Cl)cc1NC(=O)Nc1cnccn1 [Example 29, 1-[2-(3-Amino-propoxy)-5-chloro-phenyl]-3-pyrazin-2-yl-urea]",4.5
5,"NCCCOc1ccc(Cl)cc1NC(=O)Nc1cnc2ccccc2n1 [Example 31, 1-[2-(3-Amino-propoxy)-5-chloro-phenyl]-3-quinoxalin-2-yl-urea]",1.8
6,"Cc1cnc(NC(=O)Nc2cc(Cl)ccc2OCCCCN)cn1 [Example 33, 1-[2-(4-Amino-butoxy)-5-chloro-phenyl]-3-(5-methyl-pyrazin-2-yl)-urea]",2.7

# Same assay, conditions: Chk1 inhibitor fixed at 625 nM with DNA damaging agent titration; shift of 1 = no shift
row,Compound,Shift 625 nM
1,"CN(C)CCCOc1ccc(Cl)cc1NC(=O)Nc1cnccn1 [Example 1, 1-[5-Chloro-2-(3-dimethylamino-propoxy)-phenyl]-3-pyrazin-2-yl-urea]",1.6
2,"CN(C)CCOc1ccc(Cl)cc1NC(=O)Nc1cnccn1 [Example 2, 1-[5-Chloro-2-(2-dimethylamino-ethoxy)-phenyl]-3-pyrazin-2-yl-urea]",1.5
3,Cc1cnc(NC(=O)Nc2cc(Cl)ccc2OCCCN)cn1 [Example 28],6.8
4,"NCCCOc1ccc(Cl)cc1NC(=O)Nc1cnccn1 [Example 29, 1-[2-(3-Amino-propoxy)-5-chloro-phenyl]-3-pyrazin-2-yl-urea]",5.0
5,"NCCCOc1ccc(Cl)cc1NC(=O)Nc1cnc2ccccc2n1 [Example 31, 1-[2-(3-Amino-propoxy)-5-chloro-phenyl]-3-quinoxalin-2-yl-urea]",2.8
6,"Cc1cnc(NC(=O)Nc2cc(Cl)ccc2OCCCCN)cn1 [Example 33, 1-[2-(4-Amino-butoxy)-5-chloro-phenyl]-3-(5-methyl-pyrazin-2-yl)-urea]",3.1

# Same assay, conditions: Chk1 inhibitor fixed at 1.25 μM with DNA damaging agent titration; shift of 1 = no shift
row,Compound,Shift 1.25 μM
1,"CN(C)CCCOc1ccc(Cl)cc1NC(=O)Nc1cnccn1 [Example 1, 1-[5-Chloro-2-(3-dimethylamino-propoxy)-phenyl]-3-pyrazin-2-yl-urea]",2.2
2,"CN(C)CCOc1ccc(Cl)cc1NC(=O)Nc1cnccn1 [Example 2, 1-[5-Chloro-2-(2-dimethylamino-ethoxy)-phenyl]-3-pyrazin-2-yl-urea]",1.9
3,Cc1cnc(NC(=O)Nc2cc(Cl)ccc2OCCCN)cn1 [Example 28],toxic
4,"NCCCOc1ccc(Cl)cc1NC(=O)Nc1cnccn1 [Example 29, 1-[2-(3-Amino-propoxy)-5-chloro-phenyl]-3-pyrazin-2-yl-urea]",toxic
5,"CN(C)CCCOc1ccc(Cl)cc1NC(=O)Nc1cnc2ccccc2n1 [Example 30, 1-[5-Chloro-2-(3-dimethylamino-propoxy)-phenyl]-3-quinoxalin-2-yl-urea]",1
6,"NCCCOc1ccc(Cl)cc1NC(=O)Nc1cnc2ccccc2n1 [Example 31, 1-[2-(3-Amino-propoxy)-5-chloro-phenyl]-3-quinoxalin-2-yl-urea]",4.4
7,"NCCOc1ccc(Cl)cc1NC(=O)Nc1cnccn1 [Example 32, 1-[2-(2-Amino-ethoxy)-5-chloro-phenyl]-3-pyrazin-2-yl-urea]",1.2
8,COc1cncc(NC(=O)Nc2cc(Cl)ccc2OCCCN)n1 [Example 34],2.4
9,"Cc1ccc(OCCCN(C)C)c(NC(=O)Nc2cnccn2)c1 [Example 35, 1-[5-Methyl-2-(3-dimethylamino-propoxy)-phenyl]-3-pyrazin-2-yl-urea]",2.1

# Same assay, conditions: Chk1 inhibitor fixed at 2.5 μM with DNA damaging agent titration; shift of 1 = no shift
row,Compound,Shift 2.5 μM
1,"CN(C)CCCOc1ccc(Cl)cc1NC(=O)Nc1cnccn1 [Example 1, 1-[5-Chloro-2-(3-dimethylamino-propoxy)-phenyl]-3-pyrazin-2-yl-urea]",3.4
2,"CN(C)CCOc1ccc(Cl)cc1NC(=O)Nc1cnccn1 [Example 2, 1-[5-Chloro-2-(2-dimethylamino-ethoxy)-phenyl]-3-pyrazin-2-yl-urea]",2.6
3,Cc1cnc(NC(=O)Nc2cc(Cl)ccc2OCCCN)cn1 [Example 28],toxic
4,"NCCCOc1ccc(Cl)cc1NC(=O)Nc1cnccn1 [Example 29, 1-[2-(3-Amino-propoxy)-5-chloro-phenyl]-3-pyrazin-2-yl-urea]",toxic
5,"CN(C)CCCOc1ccc(Cl)cc1NC(=O)Nc1cnc2ccccc2n1 [Example 30, 1-[5-Chloro-2-(3-dimethylamino-propoxy)-phenyl]-3-quinoxalin-2-yl-urea]",1.4
6,"NCCCOc1ccc(Cl)cc1NC(=O)Nc1cnc2ccccc2n1 [Example 31, 1-[2-(3-Amino-propoxy)-5-chloro-phenyl]-3-quinoxalin-2-yl-urea]",6.2
7,"NCCOc1ccc(Cl)cc1NC(=O)Nc1cnccn1 [Example 32, 1-[2-(2-Amino-ethoxy)-5-chloro-phenyl]-3-pyrazin-2-yl-urea]",1.4
8,COc1cncc(NC(=O)Nc2cc(Cl)ccc2OCCCN)n1 [Example 34],3.031
9,"Cc1ccc(OCCCN(C)C)c(NC(=O)Nc2cnccn2)c1 [Example 35, 1-[5-Methyl-2-(3-dimethylamino-propoxy)-phenyl]-3-pyrazin-2-yl-urea]",2.9

# Target: T1, CHK-1 (Homo sapiens, UniProt O14757)
# T1 sequence (O14757 1-476): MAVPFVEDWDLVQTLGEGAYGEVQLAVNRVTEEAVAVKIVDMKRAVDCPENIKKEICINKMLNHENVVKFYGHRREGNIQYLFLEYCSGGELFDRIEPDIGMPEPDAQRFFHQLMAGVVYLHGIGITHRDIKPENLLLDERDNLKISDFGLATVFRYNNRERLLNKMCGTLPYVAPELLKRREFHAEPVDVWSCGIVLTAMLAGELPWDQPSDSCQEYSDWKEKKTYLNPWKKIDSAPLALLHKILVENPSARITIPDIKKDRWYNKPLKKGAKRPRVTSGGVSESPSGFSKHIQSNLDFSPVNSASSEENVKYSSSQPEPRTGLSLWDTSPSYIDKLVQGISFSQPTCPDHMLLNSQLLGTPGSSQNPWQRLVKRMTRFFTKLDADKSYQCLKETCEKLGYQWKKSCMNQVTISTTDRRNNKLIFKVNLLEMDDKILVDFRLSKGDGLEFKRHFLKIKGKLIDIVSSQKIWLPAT
# Assay: IC50 for the test compound versus CHK-1 (Table 2, assay format not stated)
# Assay type: biochemical
# Details: not given
row,IC50 [nM],Compound
1,3.5,"CN(C)CCCOc1ccc(Cl)cc1NC(=O)Nc1cnccn1 [Example 1, 1-[5-Chloro-2-(3-dimethylamino-propoxy)-phenyl]-3-pyrazin-2-yl-urea]"
2,8,"CN(C)CCOc1ccc(Cl)cc1NC(=O)Nc1cnccn1 [Example 2, 1-[5-Chloro-2-(2-dimethylamino-ethoxy)-phenyl]-3-pyrazin-2-yl-urea]"
3,2.5,"NCCCOc1ccc(Cl)cc1NC(=O)Nc1cnccn1 [Example 29, 1-[2-(3-Amino-propoxy)-5-chloro-phenyl]-3-pyrazin-2-yl-urea]"
4,19,"CN(C)CCCOc1ccc(Cl)cc1NC(=O)Nc1cnc2ccccc2n1 [Example 30, 1-[5-Chloro-2-(3-dimethylamino-propoxy)-phenyl]-3-quinoxalin-2-yl-urea]"
5,16,"NCCOc1ccc(Cl)cc1NC(=O)Nc1cnccn1 [Example 32, 1-[2-(2-Amino-ethoxy)-5-chloro-phenyl]-3-pyrazin-2-yl-urea]"
6,16,"Cc1ccc(OCCCN(C)C)c(NC(=O)Nc2cnccn2)c1 [Example 35, 1-[5-Methyl-2-(3-dimethylamino-propoxy)-phenyl]-3-pyrazin-2-yl-urea]"

# Further lines, the compound ahead of its results:
row,Compound,IC50 [nM]
1,Cc1cnc(NC(=O)Nc2cc(Cl)ccc2OCCCN)cn1 [Example 28],4
2,"NCCCOc1ccc(Cl)cc1NC(=O)Nc1cnc2ccccc2n1 [Example 31, 1-[2-(3-Amino-propoxy)-5-chloro-phenyl]-3-quinoxalin-2-yl-urea]",5
3,"Cc1cnc(NC(=O)Nc2cc(Cl)ccc2OCCCCN)cn1 [Example 33, 1-[2-(4-Amino-butoxy)-5-chloro-phenyl]-3-(5-methyl-pyrazin-2-yl)-urea]",3
4,COc1cncc(NC(=O)Nc2cc(Cl)ccc2OCCCN)n1 [Example 34],20

# Target: T2, GST-Chk1 (recombinant human Chk1) (Homo sapiens, UniProt O14757)
# T2 construct: made in house; host or cells: insect cells (Bac-to-Bac baculovirus system)
# T2 sequence (O14757 1-476): T1 sequence (O14757 1-476)
# Assay: Chk1 FlashPlate kinase assay
# Assay type: biochemical
# Details: 1 uM ATP
# Experimental: Recombinant human Chk1 was expressed as a fusion protein with glutathione S-transferase at the amino-terminus (GST-Chk1) using standard baculovirus vectors and (Bac-to-Bac®) insect cell expression system purchased from GIBCO™ Invitrogen. Recombinant protein expressed in insect cells was purified using glutathione sepharose (Amersham Biotech) using standard procedures described by the manufacturer.
# Chk1 FlashPlate® Kinase Assay:
# Reactions were incubated for 30 minutes at room temperature, terminated with 50 ul of 50 mM EDTA and 90 ul were transferred to streptavidin-coated FlashPlates® (NEN) and incubated for 1 hour at room temperature. Plates were washed with phosphate buffered salaine containing 0.01% Tween-20 and 10 mM sodium pyrophosphate. Plates were dried, sealed with Topseal™ (NEN) and amount of ^33P incorporated into the peptide substate measure using a Packard Topcount® NXT™ scintillation counter with standard settings.
# Compounds of the present invention were tested in the Chk1 FlashPlate® kinase assay described above.
row,IC50 [nM],Compound
1,< 100,"CN(C)CCCOc1ccc(Cl)cc1NC(=O)Nc1cnccn1 [Example 1, 1-[5-Chloro-2-(3-dimethylamino-propoxy)-phenyl]-3-pyrazin-2-yl-urea]"
2,< 100,"CN(C)CCOc1ccc(Cl)cc1NC(=O)Nc1cnccn1 [Example 2, 1-[5-Chloro-2-(2-dimethylamino-ethoxy)-phenyl]-3-pyrazin-2-yl-urea]"
3,< 100,"Cc1cnc(NC(=O)Nc2cc(Cl)ccc2OCCN(C)C)cn1 [Example 3, 1-[5-Chloro-2-(2-dimethylamino-ethoxy)-phenyl]-3-(5-methyl-pyrazin-2-yl)-urea]"
4,< 1000,"O=C(Nc1cnccn1)Nc1cc(Cl)ccc1OCCN1CCOCC1 [Example 5, 1-[5-Chloro-2-(2-morpholin-4-yl-ethoxy)-phenyl]-3-pyrazin-2-yl-urea]"
5,< 1000,"COc1ccc(Cl)cc1NC(=O)Nc1cnccn1 [Example 6, 1-(5-Chloro-2-methoxy-phenyl)-3-pyrazin-2-yl-urea]"

# Continued, compound first:
row,Compound,IC50 [nM]
1,COc1cc(Cl)c(C)cc1NC(=O)Nc1cnccn1 [Compound 46],< 1000
2,Cc1cnc(NC(=O)Nc2cc(Cl)ccc2OCC(C)(C)CN)cn1 [Compound 109],< 100
3,NCCCOc1ccc(Cl)cc1NC(=O)Nc1ccc(C(N)=O)cn1 [Compound 110],< 100
4,N#Cc1ccc(NC(=O)Nc2cc(Cl)ccc2OCCCN)nc1 [Compound 111],< 100
5,Cc1cnc(NC(=O)Nc2cc(Cl)ccc2OCCCNC2CCC2)cn1 [Compound 112],< 100
